The text below walks through data of patent US6756359B2, “C12 modified erythromycin macrolides and ketolides having antibacterial activity” (Chiron Corporation, priority 2001, dated 2004).

What all share (experiment): Antibacterial activity in vitro, MIC by broth microdilution
In general terms: Dilution methods test growth across graded concentrations, often in twofold steps.

In one test the test system is E. faecalis Enfa_29212. It counts as cell-based. Particulars: Table 5, Strain ID D: E. faecalis Enfa_29212; unit assumed. A digest of the protocol: (§1)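 NCCLS microdilution; CAMHB; 2-fold series; 3×10^5–7×10^5 CFU/mL; 35° C., 18-24 h, ambient air except S. pneumoniae (5-10% CO2, lysed horse blood 2-5%). Endpoint: no visible growth.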
Another test has as its system S. aureus Stau_29213. Type of test: cell-based. Particulars: Table 5, Strain ID A: S. aureus Stau_29213; unit assumed. The method in brief: as §1
In test [1] the test system is S. epidermidis Step_14990. Type of test: cell-based. Particulars: Table 5, Strain ID B: S. epidermidis Step_14990; unit assumed. A digest of the protocol: as §1
The test system of test [2] is S. epidermidis Step_f50654 Pen S. Type of test: cell-based. Particulars: Table 5, Strain ID C: S. epidermidis Step_f50654; unit assumed. A digest of the protocol: as §1
The next test has as its system S. pyogenes Stpy_8668. Type of test: cell-based. Particulars: Table 5, Strain ID E: S. pyogenes Stpy_8668. A digest of the protocol:
as §1

The test system of test [3] is S. pneumoniae Stpn_280-962 Pen S. It counts as cell-based, Streptococcus pneumoniae. Particulars: Table 5, Strain ID H: S. pneumoniae Stpn_280-962. The method in brief:
as §1

Test [4] deals with S. pneumoniae Stpn_297-749 Pen R. It counts as cell-based, Streptococcus pneumoniae. Particulars: Table 5, Strain ID G: S. pneumoniae Stpn_297-749. A digest of the protocol: as §1
The next test deals with S. pneumoniae Stpn_49619. Type of test: cell-based, Streptococcus pneumoniae. Particulars: Table 5, Strain ID F: S. pneumoniae Stpn_49619. A digest of the protocol:
as §1

The test system of test [5] is S. pneumoniae Stpn_Erm 6849. Type of test: cell-based, Streptococcus pneumoniae. Particulars: Table 5, Strain ID I: S. pneumoniae Stpn_Erm 6849; unit assumed. The method in brief: as §1
The subject of test [6] is S. pneumoniae Stpn_Erm S 4297. It counts as cell-based, Streptococcus pneumoniae. Particulars: Table 5, Strain ID J: S. pneumoniae Stpn_Erm S 4297. A digest of the protocol:
as §1

In test [7] the test system is S. pneumoniae Stpn_Mef 5654. It counts as cell-based, Streptococcus pneumoniae. Particulars: Table 5, Strain ID K: S. pneumoniae Stpn_Mef 5654; unit assumed. A digest of the protocol: as §1
The subject of test [8] is S. pneumoniae Stpn_Mef S 3427. It counts as cell-based, Streptococcus pneumoniae. Particulars: Table 5, Strain ID L: S. pneumoniae Stpn_Mef S 3427. A digest of the protocol: as §1
The subject of a further test is H. influenzae Hain_49247. Type of test: cell-based, Haemophilus influenzae. Particulars: Table 5, Strain ID M: H. influenzae Hain_49247; unit assumed. The method in brief:
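Visible-growth inhibition defined the MIC, obtained by NCCLS broth microdilution at 35° C. over 18-24 hours with a final inoculum of 3×10^5–7×10^5 CFU/mL.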

The structures appear in SMILES notation. Converted amounts (≈) assume the structure as drawn.

For `C=C[C@]12OC(=O)N(CCCCn3cnc(-c4cccnc4)c3)[C@@H]1[C@@H](C)C(=O)[C@H](C)C[C@](C)(OC)[C@H](OC1O[C@H](C)C[C@H](N(C)C)[C@H]1O)[C@@H](C)C(=O)[C@](C)(F)C(=O)O[C@@H]2CC` (stereo partly drawn) [Example 49, (3aS,4R,7S,9R,10R,11S,13R,15R,15aR)-4-ethyl-7-fluoro-11-methoxy-7,9,11,13,15-pentamethyl-2,6,8,14-tetraoxo-1-[4-(4-pyridin-3-yl-1H-imidazol-1-yl)butyl]-3a-vinyltetradecahydro-2H-oxacyclotetradecino[4,3-d][1,3]oxazol-10-yl 3,4,6-trideoxy-3-(dimethylamino)-D-xylo-hexopyranoside], the MIC is 0.1 mg/L (≈ 0.119 µM) with E. faecalis Enfa_29212; 0.2 mg/L (≈ 0.238 µM) against S. aureus Stau_29213; 0.2 mg/L (≈ 0.238 µM) in [1]; 0.2 mg/L (≈ 0.238 µM) in test [2]; “≦0.05” in the test on S. pyogenes Stpy_8668; “≦0.05” in [3]. Moreover, the MIC result in [4] was “≦0.05”; against S. pneumoniae Stpn_49619, “≦0.05”; in test [5] it was 0.1 mg/L (≈ 0.119 µM); in test [6] it was “≦0.05”; in test [7], 0.78 mg/L (≈ 0.926 µM); in test [8], “≦0.05”. For the same compound, in the test with H. influenzae Hain_49247, the MIC came to 6.25 mg/L (≈ 7.42 µM).
Regarding `CC[C@H]1OC(=O)[C@@](C)(F)C(=O)[C@H](C)[C@@H](O[C@@H]2O[C@H](C)C[C@H](N(C)C)[C@H]2O)[C@@](C)(OC)C[C@@H](C)C(=O)[C@H](C)[C@H]2N(CCCC(C)(C)n3cnc4cccnc43)C(=O)O[C@]12CC` [Example 40, (3aS,4R,7S,9R,10R,11S,13R,15R,15aR)-3a,4-diethyl-7-fluoro-1-[4-(3H-imidazo[4,5-b]pyridin-3-yl)-4-methylpentyl]-11-methoxy-7,9,11,13,15-pentamethyl-2,6,8,14-tetraoxotetradecahydro-2H-oxacyclotetradecino[4,3-d][1,3]oxazol-10-yl 3,4,6-trideoxy-3-(dimethylamino)-D-xylo-hexopyranoside], the MIC against E. faecalis Enfa_29212 is 0.1 mg/L (≈ 0.118 µM); in the test with S. aureus Stau_29213 it was 0.2 mg/L (≈ 0.236 µM); in test [1], 0.2 mg/L (≈ 0.236 µM); in [2], 0.2 mg/L (≈ 0.236 µM); against S. pyogenes Stpy_8668, “≦0.05”; in test [3] it was “≦0.05”. In addition, the MIC result in [4] was “≦0.05”; against S. pneumoniae Stpn_49619, “≦0.05”; in test [5], 0.2 mg/L (≈ 0.236 µM); in [6], “≦0.05”; in test [7] it was 0.78 mg/L (≈ 0.922 µM); in test [8] (unit assumed), 0.2 mg/L (≈ 0.236 µM). In the test with H. influenzae Hain_49247, this compound registered an MIC of 6.25 mg/L (≈ 7.39 µM).
With `CC[C@H]1OC(=O)[C@H](C)C(=O)[C@H](C)[C@@H](OC2O[C@H](C)C[C@H](N(C)C)[C@H]2O)[C@@](C)(OC)C[C@@H](C)C(=O)[C@H](C)[C@H]2N(CCCCn3cnc(-c4ccc(C)nc4)c3)C(=O)O[C@]12CC` (stereo partly drawn) [Example 29, (3aS,4R,7R,9R,10R,11S,13R,15R,15aR)-3a,4-diethyl-11-methoxy-7,9,11,13,15-pentamethyl-1-{4-[4-(6-methylpyridin-3-yl)-1H-imidazol-1-yl]butyl}-2,6,8,14-tetraoxotetradecahydro-2H-oxacyclotetradecino[4,3-d][1,3]oxazol-10-yl 3,4,6-trideoxy-3-(dimethylamino)-D-xylo-hexopyranoside], the MIC was 0.2 mg/L (≈ 0.238 µM) with E. faecalis Enfa_29212; 0.4 mg/L (≈ 0.476 µM) against S. aureus Stau_29213; 0.2 mg/L (≈ 0.238 µM) in test [1]; 0.4 mg/L (≈ 0.476 µM) in test [2]; “≦0.05” against S. pyogenes Stpy_8668; “≦0.05” in test [3]. The MIC result in [4] was “≦0.05”; in the test on S. pneumoniae Stpn_49619, “≦0.05”; in test [5], 1.56 mg/L (≈ 1.86 µM); in test [6] (unit assumed) it was 0.2 mg/L (≈ 0.238 µM); in test [7], 0.78 mg/L (≈ 0.928 µM); in test [8] (unit assumed) it was 0.2 mg/L (≈ 0.238 µM). This compound registered an MIC in the test with H. influenzae Hain_49247 of 6.25 mg/L (≈ 7.44 µM).
In the case of `C/C=C/[C@]12OC(=O)N(CCCCn3cnc(-c4cccnc4)c3)[C@@H]1[C@@H](C)C(=O)[C@H](C)C[C@](C)(OC)[C@H](O[C@@H]1O[C@H](C)C[C@H](N(C)C)[C@H]1O)[C@@H](C)C(=O)[C@@H](C)C(=O)O[C@@H]2CC` [65(2), (3aS,4R,7R,9R,10R,11S,13R,15R,15aR)-4-ethyl-11-methoxy-7,9,11,13,15-pentamethyl-2,6,8,14-tetraoxo-3a-[(1E)-prop-1-enyl]-1-[4-(4-pyridin-3-yl-1H-imidazol-1-yl)butyl]tetradecahydro-2H-oxacyclotetradecino[4,3-d][1,3]oxazol-10-yl 3,4,6-trideoxy-3-(dimethylamino)-D-xylo-hexopyranoside], the MIC against E. faecalis Enfa_29212 is 0.78 mg/L (≈ 0.931 µM); against S. aureus Stau_29213, 3.13 mg/L (≈ 3.73 µM); in test [1] it was 3.13 mg/L (≈ 3.73 µM); in test [2] it was 3.13 mg/L (≈ 3.73 µM); with S. pyogenes Stpy_8668 (unit assumed), 0.2 mg/L (≈ 0.239 µM); in test [3], “≦0.05”. Moreover, the MIC result in [4] is “≦0.05”; with S. pneumoniae Stpn_49619, “≦0.05”; in [5], 0.78 mg/L (≈ 0.931 µM); in test [6] (unit assumed), 0.4 mg/L (≈ 0.477 µM); in test [7], 0.78 mg/L (≈ 0.931 µM); in test [8] (unit assumed), 0.2 mg/L (≈ 0.239 µM). In addition, in the test with H. influenzae Hain_49247, the MIC was determined as 25 mg/L (≈ 29.8 µM).
Turning to `CC[C@H]1OC(=O)[C@H](C)C(=O)[C@H](C)[C@@H](OC2O[C@H](C)C[C@H](N(C)C)[C@H]2O)[C@@](C)(OC)C[C@@H](C)C(=O)[C@H](C)[C@H]2N(CCN(C)Cc3cccnc3)C(=O)O[C@]12CC` (stereo partly drawn) [Example 23, (3aS,4R,7R,9R,10R,11S,13R,15R,15aR)-3a,4-diethyl-11-methoxy-7,9,11,13,15-pentamethyl-1-{2-[methyl(pyridin-3-ylmethyl)amino]ethyl}-2,6,8,14-tetraoxotetradecahydro-2H-oxacyclotetradecino[4,3-d][1,3]oxazol-10-yl 3,4,6-trideoxy-3-(dimethylamino)-D-xylo-hexopyranoside], the MIC with E. faecalis Enfa_29212 was 0.2 mg/L (≈ 0.258 µM); with S. aureus Stau_29213 it was 1.56 mg/L (≈ 2.01 µM); in [1] it was 0.78 mg/L (≈ 1.01 µM); in [2], 0.78 mg/L (≈ 1.01 µM); in the test with S. pyogenes Stpy_8668, “≦0.05”; in [3] it was “≦0.05”. For the same compound, the MIC entry was “≦0.05” in [4]; “≦0.05” against S. pneumoniae Stpn_49619; 0.78 mg/L (≈ 1.01 µM) in test [5]; 0.2 mg/L (≈ 0.258 µM) in test [6] (unit assumed); 0.4 mg/L (≈ 0.516 µM) in [7]; 0.1 mg/L (≈ 0.129 µM) in test [8] (unit assumed). This compound also came in with an MIC in the test with H. influenzae Hain_49247 of 6.25 mg/L (≈ 8.06 µM).
For `CC[C@H]1OC(=O)[C@@](C)(F)C(=O)[C@H](C)[C@@H](OC2O[C@H](C)C[C@H](N(C)C)[C@H]2O)[C@@](C)(OC)C[C@@H](C)C(=O)[C@H](C)[C@H]2N(CCCCn3cnc4ncccc43)C(=O)O[C@]12CC` (stereo partly drawn) [Example 27, (3aS,4R,7S,9R,10R,11S,13R,15R,15aR)-3a,4-diethyl-7-fluoro-1-[4-(1H-imidazo[4,5-b]pyridin-1-yl)butyl]-11-methoxy-7,9,11,13,15-pentamethyl-2,6,8,14-tetra-oxotetradecahydro-2H-oxacyclotetradecino[4,3-d][1,3]oxazol-10-yl 3,4,6-trideoxy-3-(dimethylamino)-D-xylo-hexopyranoside], the MIC is 0.05 mg/L (≈ 0.0611 µM) against E. faecalis Enfa_29212; 0.1 mg/L (≈ 0.122 µM) in the test with S. aureus Stau_29213; 0.1 mg/L (≈ 0.122 µM) in test [1]; 0.1 mg/L (≈ 0.122 µM) in test [2]; “≦0.025” with S. pyogenes Stpy_8668; “≦0.025” in test [3]. Also, the MIC in test [4] (unit assumed) is 0.025 mg/L (≈ 0.0306 µM); against S. pneumoniae Stpn_49619, “≦0.025”; in test [5] it was 3.13 mg/L (≈ 3.83 µM); in [6] (unit assumed), 0.1 mg/L (≈ 0.122 µM); in test [7], 0.4 mg/L (≈ 0.489 µM); in [8] (unit assumed), 0.1 mg/L (≈ 0.122 µM). The MIC in the test with H. influenzae Hain_49247 came out at 1.56 mg/L (≈ 1.91 µM).
